Three compounds from article PMC9227830, “Neuroprotective Effect of Yucca schidigera Roezl ex Ortgies Bark Phenolic Fractions, Yuccaol B and Gloriosaol A on Scopolamine-Induced Memory Deficits in Zebrafish” (Molecules, 2022) can be followed below.

Molecules are shown by their SMILES.

This assay deals with T1, Glycine max (soybean) 15-lipoxygenase (15-LOX) (Glycine max, UniProt P08170).
T1 construct: gene LOX1.1; commercial native soybean enzyme (Sigma-Aldrich)
T1 sequence (P08170 1-839): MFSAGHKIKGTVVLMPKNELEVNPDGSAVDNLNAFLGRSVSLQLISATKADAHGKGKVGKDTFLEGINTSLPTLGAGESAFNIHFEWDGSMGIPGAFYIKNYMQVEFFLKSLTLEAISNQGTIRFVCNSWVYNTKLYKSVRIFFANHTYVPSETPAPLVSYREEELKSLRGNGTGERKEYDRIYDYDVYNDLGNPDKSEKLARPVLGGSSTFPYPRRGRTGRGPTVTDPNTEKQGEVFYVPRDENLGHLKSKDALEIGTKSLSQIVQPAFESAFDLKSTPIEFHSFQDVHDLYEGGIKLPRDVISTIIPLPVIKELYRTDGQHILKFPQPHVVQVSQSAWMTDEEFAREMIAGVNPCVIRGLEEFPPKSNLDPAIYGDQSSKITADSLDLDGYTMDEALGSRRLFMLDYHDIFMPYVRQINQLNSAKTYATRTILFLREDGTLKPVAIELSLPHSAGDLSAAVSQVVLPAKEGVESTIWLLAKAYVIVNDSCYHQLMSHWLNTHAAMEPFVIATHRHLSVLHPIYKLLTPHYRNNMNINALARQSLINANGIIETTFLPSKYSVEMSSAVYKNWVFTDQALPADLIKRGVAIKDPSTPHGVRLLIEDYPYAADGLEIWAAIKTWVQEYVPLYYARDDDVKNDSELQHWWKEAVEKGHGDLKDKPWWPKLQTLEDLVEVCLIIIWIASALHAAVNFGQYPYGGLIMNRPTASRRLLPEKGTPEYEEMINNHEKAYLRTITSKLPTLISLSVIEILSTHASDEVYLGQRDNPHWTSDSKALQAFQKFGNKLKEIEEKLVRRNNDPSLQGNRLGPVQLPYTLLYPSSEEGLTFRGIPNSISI
Kind of assay: UV spectrophotometry at […] nm, linoleic acid oxidation (modified Malterud). Format: biochemical. Conditions: read-out: EC50 (the source's name) (converted).

With `COc1c(O)cc(/C=C/c2cc(O)cc3c2[C@]2(C(=O)O3)c3c(O)cc(O)cc3O[C@H]2c2ccc(O)cc2)c2c1OC(=O)[C@]21c2c(O)cc(O)cc2O[C@H]1c1ccc(O)cc1` [GloA, gloriosaol A], the IC50 is 15.2 µM.

Turning to `O=C1Oc2cc(O)cc(/C=C/c3ccc(O)cc3)c2[C@@]12c1c(O)cc(O)cc1O[C@H]2c1ccc(O)cc1` [YuB, yuccaol B], the IC50 was 19.5 µM.

In the case of `O=C1O[C@H]([C@@H](O)CO)C(O)=C1O` [vitamin C, reference compound], the IC50 was 122 µM.
